Our source for the DC50 and Dmax values is patent publication US12599672B2, “KRAS proteolysis targeting chimeras” (PAQ Therapeutics Inc., priority 2023, dated 2026).

Structures are written as SMILES.

One assay has as its target T1, KRAS G12D (Homo sapiens, UniProt P01116, G12D).
T1 construct: AsPc-1-KRAS (G12D)-HiBit-KI cell (Pharmaron); host or cells: AsPc-1-KRAS (G12D)-HiBit-KI cells (HiBiT knock-in at the endogenous KRAS locus)
In words: KRAS G12D HiBit assay. Format: cell-based. Particulars: AsPc-1-KRAS (G12D)-HiBit-KI cell, compound treatment for 24 hours; for DC50: absolute DC50. The method, boiled down:
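Cells were treated for 24 h with compounds in a 3-fold, 10-point dilution series from a 0.3 mM DMSO stock, then equilibrated 15 min at room temperature. KRAS G12D HiBiT levels were read by luminescence after lytic Nano-Glo HiBiT reagent with LgBiT; inhibition calculated relative to 0.1% DMSO high control.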
In general terms: The HiBiT peptide binds its large partner to form an active luciferase.

A further assay has as its target T2, KRAS G12V (Homo sapiens, UniProt P01116, G12V).
T2 construct: SW620-KRAS (G12V)-HiBit-KI cell (Pharmaron); host or cells: SW620-KRAS (G12V)-HiBit-KI cells (HiBiT knock-in at the endogenous KRAS locus)
In words: KRAS G12V HiBit assay. Format: cell-based. Particulars: SW620-KRAS (G12V)-HiBit-KI cells, compound treatment for 24 hours, class symbols. An outline of the steps: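 HiBiT-tagged KRAS G12V cells treated 24 h with compound in a 3-fold, 10-point series (0.3 mM DMSO stock); lytic HiBiT reagent with LgBiT added after 15 min room-temperature equilibration. Degradation calculated against 0.1% DMSO high control.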

Where [1] appears, read: numeric bounds given in place of class symbols.

T2 sequence (P01116 1-188 isoform P01116-2 G12V): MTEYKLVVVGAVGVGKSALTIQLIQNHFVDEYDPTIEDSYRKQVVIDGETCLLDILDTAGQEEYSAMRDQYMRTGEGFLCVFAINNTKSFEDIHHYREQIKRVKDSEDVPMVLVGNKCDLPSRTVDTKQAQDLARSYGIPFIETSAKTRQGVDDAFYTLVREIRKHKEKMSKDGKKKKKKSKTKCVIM
T1 sequence (P01116 1-188 isoform P01116-2 G12D): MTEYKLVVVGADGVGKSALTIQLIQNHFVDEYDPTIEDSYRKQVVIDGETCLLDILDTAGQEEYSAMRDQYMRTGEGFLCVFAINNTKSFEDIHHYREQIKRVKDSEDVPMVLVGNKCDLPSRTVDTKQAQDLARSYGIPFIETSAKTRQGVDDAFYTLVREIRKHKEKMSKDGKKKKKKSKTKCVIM

Regarding `CCc1cccc2cc(O)cc(-c3cc4nc(OC[C@@]56CCCN5[C@H](COC(=O)N5CCC7(CC5)CC(N5CCC(c8ccc9c(c8)n(C)c(=O)n9C8CCC(=O)NC8=O)CC5)C7)CC6)nc(N5CCC[C@@](C)(O)C5)c4cn3)c12` (stereo partly drawn) [Compound 487, ((3S,7aS)-7a-(((7-(8-ethyl-3-hydroxynaphthalen-1-yl)-4-((R)-3-hydroxy-3-methylpiperidin-1-yl)pyrido[4,3-d]pyrimidin-2-yl)oxy)methyl)hexahydro-1H-pyrrolizin-3-yl)methyl 2-(4-(1-(2,6-dioxopiperidin-3-yl)-3-methyl-2-oxo-2,3-dihydro-1H-benzo[d]imidazol-5-yl)piperidin-1-yl)-7-azaspiro[3.5]nonane-7-carboxylate], the DC50 on KRAS G12D (class symbols) is less than 100 nM; on KRAS G12V, less than 10 nM.

As for `C#Cc1c(F)ccc2cccc(-c3ncc4c(N5CCC[C@@](C)(O)C5)nc(OCC5(CN6CCN(C7CCN(c8ccc9c(c8)n(C)c(=O)n9C8CCC(=O)NC8=O)CC7)CC6)CC5)nc4c3F)c12` (stereo partly shown) [Compound 53], the DC50 at KRAS G12D (class symbols) was greater than 300 nM; on KRAS G12V, greater than 100 nM.

Regarding `C#Cc1c(F)ccc2cc(O)cc(-c3ncc4c(N5CCCC(F)(F)C5)nc(OCC5(CN6CCN(CC7CCN(c8ccc9c(c8)n(C)c(=O)n9C8CCC(=O)NC8=O)CC7)CC6)CC5)nc4c3F)c12` (stereo not shown) [Compound 17, 3-(5-(4-((4-((1-(((4-(3,3-Difluoropiperidin-1-yl)-7-(8-ethynyl-7-fluoro-3-hydroxynaphthalen-1-yl)-8-fluoropyrido[4,3-d]pyrimidin-2-yl)oxy)methyl)cyclopropyl)methyl)piperazin-1-yl)methyl)piperidin-1-yl)-3-methyl-2-oxo-2,3-dihydro-1H-benzo[d]imidazol-1-yl) piperidine-2,6-dione], on KRAS G12D (class symbols), the DC50 is less than 100 nM and the Dmax was greater than 50%. The same molecule gave a DC50 at KRAS G12V greater than 100 nM.

Regarding `C#Cc1cccc2cc(O)cc(-c3ncc4c(N5CCC[C@@](C)(O)C5)nc(OC[C@@]56CCCN5[C@H](COC(=O)N5CCC(CN7CCC(c8ccc9c(c8)n(C)c(=O)n9C8CCC(=O)NC8=O)CC7)CC5)CC6)nc4c3F)c12` (stereo partly shown) [Compound 144], the DC50 at KRAS G12D (class symbols) was less than 100 nM; at KRAS G12V it was less than 10 nM.

At KRAS G12D (class symbols), `CCc1c(F)ccc2cccc(-c3ncc4c(N5CCC[C@@](C)(O)C5)nc(OC[C@@]56CCCN5[C@H](COC(=O)NCCOCCOCCOc5ccc7c(c5)n(C)c(=O)n7C5CCC(=O)NC5=O)CC6)nc4c3F)c12` (stereo partly drawn) [Compound 104, ((3S,7aS)-7a-(((7-(8-ethyl-7-fluoronaphthalen-1-yl)-8-fluoro-4-((R)-3-hydroxy-3-methylpiperidin-1-yl)pyrido[4,3-d]pyrimidin-2-yl)oxy)methyl)hexahydro-1H-pyrrolizin-3-yl)methyl (2-(2-(2-((1-(2,6-dioxopiperidin-3-yl)-3-methyl-2-oxo-2,3-dihydro-1H-benzo[d]imidazol-5-yl)oxy)ethoxy)ethoxy)ethyl) carbamate] showed a DC50 greater than 300 nM and a Dmax of 15 to 50%. The DC50 on KRAS G12V is greater than 100 nM.

For the molecule `Cn1c(=O)n(C2CCC(=O)NC2=O)c2cc(C3CCN(CC4CCN(C(=O)CN5CCN(c6nccc(-c7noc([C@@]8(C)CCCc9sc(N)c(C#N)c98)n7)n6)CC5)CC4)CC3)ccc21` (stereo partly shown) [Compound 223], the DC50 at KRAS G12D (setting [1]) was greater than 231 nM; on KRAS G12V, greater than 100 nM.

`CCc1c(F)ccc2cc(O)cc(-c3ncc4c(N5CCC[C@@](C)(O)C5)nc(OC[C@@]56CCCN5[C@H](COC(=O)N5CCC7(CC5)CN(C5CCN(c8ccc9c(c8)n(C)c(=O)n9C8CCC(=O)NC8=O)CC5)C7)CC6)nc4c3F)c12` (stereo partly drawn) [Compound 463, ((3S,7aS)-7a-(((7-(8-ethyl-7-fluoro-3-hydroxynaphthalen-1-yl)-8-fluoro-4-((R)-3-hydroxy-3-methylpiperidin-1-yl)pyrido[4,3-d]pyrimidin-2-yl)oxy)methyl)hexahydro-1H-pyrrolizin-3-yl)methyl 2-(1-(1-(2,6-dioxopiperidin-3-yl)-3-methyl-2-oxo-2,3-dihydro-1H-benzo[d]imidazol-5-yl)piperidin-4-yl)-2,7-diazaspiro[3.5]nonane-7-carboxylate]: the DC50 at KRAS G12D (class symbols) is less than 100 nM; at KRAS G12V it was less than 10 nM.

On to `C[C@H]1CN(CC(=O)N2CCC(CN3CCC(c4ccc5c(c4)n(C)c(=O)n5C4CCC(=O)NC4=O)CC3)CC2)CCCN1c1nccc(-c2noc([C@@]3(C)CCCc4sc(N)c(C#N)c43)n2)n1` (stereo partly drawn) [Compound 210, (4S)-2-amino-4-(3-{2-[(2S)-4-{2-[4-({4-[1-(2,6-dioxopiperidin-3-yl)-3-methyl-2-oxo-1,3-benzodiazol-5-yl]piperidin-1-yl}methyl)piperidin-1-yl]-2-oxoethyl}-2-methyl-1,4-diazepan-1-yl]pyrimidin-4-yl}-1,2,4-oxadiazol-5-yl)-4-methyl-6,7-dihydro-5H-1-benzothiophene-3-carbonitrile], for which, on KRAS G12D (class symbols), the DC50 was greater than 300 nM and the Dmax fell in the range of 15 to 50%. Moreover, the DC50 at KRAS G12V was greater than 100 nM.

On to `C#Cc1c(F)ccc2cccc(-c3ncc4c(N5CCCC(C#N)CC5)nc(OC[C@@]56CCCN5[C@H](COC(=O)NCCOc5ccc7c(c5)n(C)c(=O)n7C5CCC(=O)NC5=O)CC6)nc4c3F)c12` (stereo partly drawn) [Compound 116, ((3S,7aS)-7a-(((4-(4-cyanoazepan-1-yl)-7-(8-ethynyl-7-fluoronaphthalen-1-yl)-8-fluoropyrido[4,3-d]pyrimidin-2-yl)oxy)methyl)hexahydro-1H-pyrrolizin-3-yl)methyl (2-((1-(2,6-dioxopiperidin-3-yl)-3-methyl-2-oxo-2,3-dihydro-1H-benzo[d]imidazol-5-yl)oxy)ethyl) carbamate], for which the DC50 at KRAS G12D (class symbols) was greater than 300 nM; at KRAS G12V it was greater than 100 nM.

Turning to `CCc1c(F)ccc2cc(O)cc(-c3ncc4c(N5CCC[C@@](C)(O)C5)nc(OC[C@@]56CCCN5[C@@H](COC(=O)N5CCC(Oc7cccc8c7n(C)c(=O)n8C7CCC(=O)NC7=O)CC5)CC6)nc4c3F)c12` (stereo partly drawn) [Compound 313, ((3R,7aS)-7a-(((7-(8-ethyl-7-fluoro-3-hydroxynaphthalen-1-yl)-8-fluoro-4-((R)-3-hydroxy-3-methylpiperidin-1-yl)pyrido[4,3-d]pyrimidin-2-yl)oxy)methyl)hexahydro-1H-pyrrolizin-3-yl)methyl 4-((1-(2,6-dioxopiperidin-3-yl)-3-methyl-2-oxo-2,3-dihydro-1H-benzo[d]imidazol-4-yl)oxy)piperidine-1-carboxylate], the DC50 at KRAS G12D (setting [1]) and on KRAS G12V was greater than 100 nM throughout.

`CCc1c(F)ccc2cc(O)cc(-c3ncc4c(N5CCC[C@@](C)(O)C5)nc(OC[C@@]56CCCN5[C@H](CCCN5CCC7(CC5)CC(N5CCC(c8ccc9c(c8)n(C)c(=O)n9C8CCC(=O)NC8=O)CC5)C7)CC6)nc4c3F)c12` (stereo partly drawn) [Compound 472, 3-(5-(1-(7-(3-((3R,7aS)-7a-(((7-(8-Ethyl-7-fluoro-3-hydroxynaphthalen-1-yl)-8-fluoro-4-((R)-3-hydroxy-3-methylpiperidin-1-yl)pyrido[4,3-d]pyrimidin-2-yl)oxy)methyl)hexahydro-1H-pyrrolizin-3-yl)propyl)-7-azaspiro[3.5]nonan-2-yl)piperidin-4-yl)-3-methyl-2-oxo-2,3-dihydro-1H-benzo[d]imidazol-1-yl) piperidine-2,6-dione]: the DC50 at KRAS G12D (class symbols) was less than 100 nM; at KRAS G12V it was 10 to 100 nM.

Take `CCc1c(F)ccc2cc(O)cc(-c3ncc4c(N5CCC[C@@](C)(O)C5)nc(OC[C@@]56CCCN5[C@H](COC(=O)N5CCC(CN7CC8(CCC(c9ccc%10c(c9)n(C)c(=O)n%10C9CCC(=O)NC9=O)CC8)C7)CC5)CC6)nc4c3F)c12` (stereo partly drawn) [Compound 364, ((3S,7aS)-7a-(((7-(8-ethyl-7-fluoro-3-hydroxynaphthalen-1-yl)-8-fluoro-4-((R)-3-hydroxy-3-methylpiperidin-1-yl)pyrido[4,3-d]pyrimidin-2-yl)oxy)methyl)hexahydro-1H-pyrrolizin-3-yl)methyl 4-((7-(1-(2,6-dioxopiperidin-3-yl)-3-methyl-2-oxo-2,3-dihydro-1H-benzo[d]imidazol-5-yl)-2-azaspiro[3.5]nonan-2-yl)methyl)piperidine-1-carboxylate]: the DC50 was less than 100 nM at KRAS G12D (class symbols) and less than 10 nM at KRAS G12V.

As for `CCc1c(F)ccc2cc(O)cc(-c3ncc4c(N5CCC[C@H]5CO)nc(OC[C@@]56CCCN5[C@H](COC(=O)N5CCC7(CC5)CC(N5CCC(c8ccc9c(c8)n(C)c(=O)n9C8CCC(=O)NC8=O)CC5)C7)CC6)nc4c3F)c12` (stereo partly drawn) [Compound 351, ((3S,7aS)-7a-(((7-(8-ethyl-7-fluoro-3-hydroxynaphthalen-1-yl)-8-fluoro-4-((S)-2-(hydroxymethyl)pyrrolidin-1-yl)pyrido[4,3-d]pyrimidin-2-yl)oxy)methyl)hexahydro-1H-pyrrolizin-3-yl)methyl 2-(4-(1-(2,6-dioxopiperidin-3-yl)-3-methyl-2-oxo-2,3-dihydro-1H-benzo[d]imidazol-5-yl)piperidin-1-yl)-7-azaspiro[3.5]nonane-7-carboxylate], the results for the DC50 on KRAS G12D (class symbols) and on KRAS G12V were less than 100 nM and less than 10 nM, respectively.

For the molecule `C#Cc1c(F)ccc2cc(O)cc(-c3ncc4c(N5CCC[C@@](C)(O)C5)nc(OCC5(CN6CCN(Cc7cccc8c7n(C)c(=O)n8C7CCC(=O)NC7=O)CC6)CC5)nc4c3F)c12` (stereo partly shown) [Compound 63], the DC50 is greater than 300 nM on KRAS G12D (class symbols) and greater than 100 nM on KRAS G12V.
